From PubChem BioAssay (NCI)
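Test compounds were applied to cells in 96-well plates for 48 hours at 5 doses. TGI is the concentration that stops growth completely.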

What was measured:
Experiment in all cases: NCI tumour cell line growth inhibition, 48 h
[1] = tested on: OVCAR-4 ovarian
[2] = tested on: MDA-MB-231 breast
[3] = tested on: MDA-N
[4] = tested on: NCI-H522 lung
[5] = tested on: SNB-75 CNS
[6] = tested on: NCI-H460 lung
[7] = tested on: SNB-19 CNS
[8] = tested on: DU-145 prostate
[9] = tested on: UO-31 renal
[10] = tested on: MOLT-4 leukemia
[11] = tested on: SN12C renal
[12] = tested on: EKVX NSCLC
[13] = tested on: SK-MEL-28 melanoma
[14] = tested on: HL-60(TB) leukemia
[15] = tested on: HCT-116 colon
[16] = tested on: COLO 205 colon
[17] = tested on: A549 NSCLC
[18] = tested on: RXF 393 renal
[19] = tested on: U251 CNS
[20] = tested on: HS 578T breast
[21] = tested on: MDA-MB-435
[22] = tested on: K-562 leukemia
[23] = tested on: NCI/ADR-RES ovarian
[24] = tested on: HCT-15 colon
[25] = tested on: SW-620 colon
[26] = tested on: LOX IMVI melanoma
[27] = tested on: ACHN renal
[28] = tested on: HOP-92 NSCLC
[29] = tested on: SK-MEL-2 melanoma
[30] = tested on: 786-0 renal
[31] = tested on: TK-10 renal
[32] = tested on: MALME-3M melanoma
[33] = tested on: HCC-2998 colon
[34] = tested on: KM12 colon
[35] = tested on: CAKI-1 renal
[36] = tested on: OVCAR-5 ovarian
[37] = tested on: PC-3 prostate
[38] = tested on: SF-539 CNS
[39] = tested on: IGROV1 ovarian
[40] = tested on: MCF7 breast
[41] = tested on: UACC-62 melanoma
[42] = tested on: OVCAR-3 ovarian
[43] = tested on: CCRF-CEM leukemia
[44] = tested on: SK-OV-3 ovarian
[45] = tested on: T-47D breast
[46] = tested on: NCI-H226 lung
[47] = tested on: SR leukemia
[48] = tested on: SK-MEL-5 melanoma
[49] = tested on: SF-268 CNS
[50] = tested on: NCI-H23 lung
[51] = tested on: BT-549 breast
[52] = tested on: UACC-257 melanoma
[53] = tested on: M14 melanoma
[54] = tested on: RPMI-8226 leukemia
[55] = tested on: SF-295 CNS
[56] = tested on: HT29 colon
[57] = tested on: OVCAR-8 ovarian
[58] = tested on: HOP-62 NSCLC

CN(C)CCCNC(=O)c1cc(NC(=O)c2cc(NC(=O)c3cc(NC(=O)CCCn4ccc(CO)c4CO)cn3C)cn2C)cn1C
TGI [1]: > 100 µM | TGI [2]: > 100 µM | TGI [3]: > 100 µM | TGI [4]: 8.38 µM | TGI [5]: 44.4 µM | TGI [6]: > 100 µM | TGI [7]: > 100 µM | TGI [8]: > 100 µM | TGI [9]: > 100 µM | TGI [10]: > 100 µM | TGI [11]: > 100 µM | TGI [12]: > 100 µM | TGI [13]: 42.1 µM | TGI [14]: > 100 µM | TGI [15]: > 100 µM | TGI [16]: 53.1 µM | TGI [17]: 75.4 µM | TGI [18]: 6.24 µM | TGI [19]: > 100 µM | TGI [20]: 98.2 µM | TGI [21]: 47.7 µM | TGI [22]: > 100 µM | TGI [23]: > 100 µM | TGI [24]: > 100 µM | TGI [25]: > 100 µM | TGI [26]: > 100 µM | TGI [27]: > 100 µM | TGI [28]: > 100 µM | TGI [29]: 77 µM | TGI [30]: > 100 µM | TGI [31]: 72.4 µM | TGI [32]: 37.4 µM | TGI [33]: > 100 µM | TGI [34]: > 100 µM | TGI [35]: > 100 µM | TGI [36]: > 100 µM | TGI [37]: > 100 µM | TGI [38]: 33.6 µM | TGI [39]: > 100 µM | TGI [40]: > 100 µM | TGI [41]: 37.9 µM | TGI [42]: 44.7 µM | TGI [43]: > 100 µM | TGI [44]: > 100 µM | TGI [45]: > 100 µM | TGI [46]: 13.9 µM | TGI [47]: > 100 µM | TGI [48]: 12.7 µM | TGI [49]: > 100 µM | TGI [50]: > 100 µM | TGI [51]: 7.51 µM

Clc1ccc(OCC2NC3C=CC32)cn1 (centres undefined)
TGI [1]: > 100 µM | TGI [2]: > 100 µM | TGI [3]: > 100 µM | TGI [4]: > 100 µM | TGI [5]: > 100 µM | TGI [6]: > 100 µM | TGI [7]: > 100 µM | TGI [8]: > 100 µM | TGI [52]: > 100 µM | TGI [9]: > 100 µM | TGI [53]: > 100 µM | TGI [10]: > 100 µM | TGI [11]: > 100 µM | TGI [12]: 93.7 µM | TGI [13]: > 100 µM | TGI [14]: > 100 µM | TGI [15]: > 100 µM | TGI [16]: > 100 µM | TGI [17]: > 100 µM | TGI [18]: > 100 µM | TGI [19]: > 100 µM | TGI [20]: > 100 µM | TGI [54]: > 100 µM | TGI [21]: > 100 µM | TGI [22]: > 100 µM | TGI [55]: > 100 µM | TGI [23]: > 100 µM | TGI [24]: > 100 µM | TGI [25]: > 100 µM | TGI [26]: > 100 µM | TGI [27]: > 100 µM | TGI [28]: > 100 µM | TGI [29]: > 100 µM | TGI [30]: > 100 µM | TGI [31]: > 100 µM | TGI [32]: > 100 µM | TGI [33]: > 100 µM | TGI [34]: > 100 µM | TGI [35]: > 100 µM | TGI [36]: > 100 µM | TGI [37]: > 100 µM | TGI [38]: > 100 µM | TGI [56]: > 100 µM | TGI [39]: > 100 µM | TGI [40]: > 100 µM | TGI [41]: > 100 µM | TGI [42]: > 100 µM | TGI [43]: > 100 µM | TGI [44]: > 100 µM | TGI [45]: > 100 µM | TGI [57]: > 100 µM | TGI [46]: > 100 µM | TGI [47]: > 100 µM | TGI [58]: > 100 µM | TGI [48]: > 100 µM | TGI [49]: > 100 µM | TGI [50]: > 100 µM | TGI [51]: > 100 µM
